Each compound was assayed against T1, human GPR119 (Homo sapiens, UniProt Q8TDV5) (assay: Cyclic AMP assay in stable cell line (Flp-In-CHO-hGPR119, HTRF)). Details: Flp-In-CHO-hGPR119 cells, intracellular cAMP by HTRF, 1 mM IBMX, 37° C. for 30 minutes.
T1 construct: expressed in transfected cells
T1 sequence (Q8TDV5 1-335): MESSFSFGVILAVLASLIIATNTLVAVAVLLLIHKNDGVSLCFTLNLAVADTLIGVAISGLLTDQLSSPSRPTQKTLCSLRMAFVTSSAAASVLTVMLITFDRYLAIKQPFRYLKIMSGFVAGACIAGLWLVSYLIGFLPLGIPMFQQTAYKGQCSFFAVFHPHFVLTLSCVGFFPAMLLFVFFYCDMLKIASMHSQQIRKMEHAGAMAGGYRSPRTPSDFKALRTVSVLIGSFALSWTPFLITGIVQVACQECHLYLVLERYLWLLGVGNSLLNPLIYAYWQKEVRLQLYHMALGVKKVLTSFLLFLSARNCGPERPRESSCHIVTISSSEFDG
Type: cell-based
Protocol: Flp-In-CHO cells (Invitrogen, Cat.# R758-07) are maintained in Ham's F12 medium supplemented with 10% fetal bovine serum, 1% antibiotic mixture and 2 mM L-glutamine. The cells are transfected with a DNA mixture containing human GPR119 in pcDNA5/FRT vector and the pOG44 vector (1:9) using Fugene6 (Roche), according to the manufacturer's instruction. After 48 hours, the medium is changed to medium supplemented with 400 μg/ml hygromycin B to initiate the selection of stably transfected cells.
To test the activity of compounds of the invention, Flp-In-CHO-hGPR119 cells are harvested and resuspended in DMEM plus 3% lipid-depleted fetal bovine serum. Forth μl of cells are plated in 384 well plates at a density of 15,000 cells/well. IBMX (3-isobutyl-1-methyl-xanthine) is added to the cells to a final concentration of 1 mM, followed by the addition of 500 nl of the compound to be tested. The cells are incubated at 37° C. for 30 minutes. Equal volume (20 μl) of the HTRF reagents, anti-cAMP-Cryptate and cAMP-XL665, are added to the cells. The plates are incubated at room temperature for 1 hour and read on a HTRF reader according to the manufacturer's instruction.

Structure (SMILES) | EC50
CCc1cnc(N2CCC(COCC3CN(c4ncc5c(n4)CCN(S(C)(=O)=O)C5)C3)CC2)nc1 [Example G5] | 0.666 µM
CC(C)OC(=O)N1CCC(CCCCOc2nccc3c2CCN(S(C)(=O)=O)C3)CC1 [Example A9, isopropyl 4-(4-(6-(methylsulfonyl)-5,6,7,8-tetrahydro-2,6-naphthyridin-1-yloxy)butyl)piperidine-1-carboxylate] | 0.191 µM
CC1(OC(=O)N2CCC(CCCNc3ncc4c(n3)CCN(S(C)(=O)=O)C4)CC2)CC1 [Example D7, 1-methylcyclopropyl 4-(3-(6-(methylsulfonyl)-5,6,7,8-tetrahydropyrido[4,3-d]pyrimidin-2-ylamino)propyl)piperidine-1-carboxylate] | 0.008 µM
CCc1cnc(N2CCC(CCCOc3ncc4c(n3)CCN(S(C)(=O)=O)C4)CC2)nc1 [Example D3, 2-(3-(1-(5-Ethylpyrimidin-2-yl)piperidin-4-yl)propoxy)-6-(methylsulfonyl)-5,6,7,8-tetrahydropyrido[4,3-d]pyrimidine] | 0.004 µM
CC1(OC(=O)N2CCC(CCOCc3ncc4c(n3)CCN(S(C)(=O)=O)C4)CC2)CC1 [Example C1, 1-Methylcyclopropyl 4-(2-((6-(methylsulfonyl)-5,6,7,8-tetrahydropyrido[4,3-d]pyrimidin-2-yl)methoxy)ethyl)piperidine-1-carboxylate] | 0.514 µM
CC(C)OC(=O)N1CCC(N2CCC3CN(S(C)(=O)=O)CCC3C2=O)CC1 (centres unmarked) [Example A5, isopropyl 4-(6-(methylsulfonyl)-1-oxooctahydro-2,6-naphthyridin-2(1H)-yl)piperidine-1-carboxylate] | 4.36 µM
CC(C)c1noc(N2CCC(COC3CN(c4ncc5c(n4)CCN(S(C)(=O)=O)C5)C3)CC2)n1 [Example G11] | 0.17 µM
CS(=O)(=O)N1CCc2nc(CNCCc3cccc(Br)c3)ncc2C1 [Example B3, 2-(3-bromophenyl)-N-((6-(methylsulfonyl)-5,6,7,8-tetrahydropyrido[4,3-d]pyrimidin-2-yl)methyl)ethanamine] | 2.44 µM
C[C@H]1CN(C(=O)OC2(C)CC2)CC[C@H]1COC1CN(c2ncc3c(n2)CCN(S(C)(=O)=O)C3)C1 [Example J2, 1-methylcyclopropyl(3R,4R)-4-{[(1-{6-methanesulfonyl-5H,6H,7H,8H-pyrido[4,3-d]pyrimidin-2-yl}azetidin-3-yl)oxy]methyl}-3-methylpiperidine-1-carboxylate] | 0.174 µM
CCc1cnc(N2CCC(C(C)OC3CN(c4ncc5c(n4)CCN(S(C)(=O)=O)C5)C3)CC2)nc1 (racemic) [Example H1, (±)-2-(3-(1-(1-(5-Ethylpyrimidin-2-yl)piperidin-4-yl)ethoxy)azetidin-1-yl)-6-(methylsulfonyl)-5,6,7,8-tetrahydropyrido[4,3-d]pyrimidine] | 0.183 µM
CC(C)OC(=O)N1CCC(Oc2nccc3c2CCN(S(C)(=O)=O)C3)CC1 [Example A4, isopropyl 4-(6-(methylsulfonyl)-5,6,7,8-tetrahydro-2,6-naphthyridin-1-yloxy)piperidine-1-carboxylate] | 3.71 µM
CC(C)c1noc(N2CCC(CCCNc3ncc4c(n3)CCN(S(C)(=O)=O)C4)CC2)n1 [Example D4, N-(3-(1-(3-isopropyl-1,2,4-oxadiazol-5-yl)piperidin-4-yl)propyl)-6-(methylsulfonyl)-5,6,7,8-tetrahydropyrido[4,3-d]pyrimidin-2-amine] | 0.006 µM
CCc1cnc(N2CCC(COC3CN(c4ncc5c(n4)CCN(S(C)(=O)=O)C5)C3)CC2)nc1 [Example G1, 2-(3-((1-(5-Ethylpyrimidin-2-yl)piperidin-4-yl)methoxy)azetidin-1-yl)-6-(methylsulfonyl)-5,6,7,8-tetrahydropyrido[4,3-d]pyrimidine] | 0.009 µM
CCc1cnc(N2CCC(CCCNc3ncc4c(n3)CCN(S(C)(=O)=O)C4)CC2)nc1 [Example D5, N-(3-(1-(5-Ethylpyrimidin-2-yl)piperidin-4-yl)propyl)-6-(methylsulfonyl)-5,6,7,8-tetrahydropyrido[4,3-d]pyrimidin-2-amine] | 0.007 µM
CC1(OC(=O)N2CCC(Cc3cn(-c4ncc5c(n4)CCN(S(C)(=O)=O)C5)cn3)CC2)CC1 [Example G18, 1-methylcyclopropyl 4-[(1-{6-methanesulfonyl-5H,6H,7H,8H-pyrido[4,3-d]pyrimidin-2-yl}-1H-imidazol-4-yl)methyl]piperidine-1-carboxylate] | 0.122 µM
CC(C)OC(=O)N1CCC(CCCCn2ccc3c(c2=O)CCN(S(C)(=O)=O)C3)CC1 [Example A7, isopropyl 4-(4-(6-(methylsulfonyl)-1-oxo-5,6,7,8-tetrahydro-2,6-naphthyridin-2(1H)-yl)butyl)piperidine-1-carboxylate] | 0.094 µM
CC1(OC(=O)N2CCC(CCCOc3ncc4c(n3)CCN(S(C)(=O)=O)C4)CC2)CC1 [Example D2, 1-Methylcyclopropyl 4-(3-(6-(methylsulfonyl)-5,6,7,8-tetrahydropyrido[4,3-d]pyrimidin-2-yloxy)propyl)piperidine-1-carboxylate] | 0.002 µM
CO[C@H]1CN(C(=O)OC2(C)CC2)CC[C@H]1COC1CN(c2ncc3c(n2)CCN(S(C)(=O)=O)C3)C1 (racemic) [Example J1, (±)-(3R,45)-1-Methylcyclopropyl 3-methoxy-4-((1-(6-(methylsulfonyl)-5,6,7,8-tetrahydropyrido[4,3-d]pyrimidin-2-yl)azetidin-3-yloxy)methyl)piperidine-1-carboxylate] | 0.711 µM
CCc1cnc(N2CCc3c(cccc3OC3CN(c4ncc5c(n4)CCN(S(C)(=O)=O)C5)C3)C2)nc1 [Example I1, 2-(3-(2-(5-Ethylpyrimidin-2-yl)-1,2,3,4-tetrahydroisoquinolin-5-yloxy)azetidin-1-yl)-6-(methylsulfonyl)-5,6,7,8-tetrahydropyrido[4,3-d]pyrimidine] | 0.049 µM
CCc1cnc(N2CCC(CCCOc3ccc4c(n3)CCN(S(C)(=O)=O)C4)CC2)nc1 [Example F1, 2-(3-(1-(5-Ethylpyrimidin-2-yl)piperidin-4-yl)propoxy)-6-(methylsulfonyl)-5,6,7,8-tetrahydro-1,6-naphthyridine] | 0.027 µM
CC1(OC(=O)N2CCC(COC3CN(c4ncc5c(n4)CCN(S(C)(=O)=O)C5)C3)CC2)CC1 [Example G6] | 0.028 µM
CC(C)(C)OC(=O)N1CC(OCC2CCN(c3ncc4c(n3)CCN(S(C)(=O)=O)C4)CC2)C1 [Example G7] | 0.022 µM
CCc1cnc(N2CCC(COC3CCN(c4ncc5c(n4)CCN(S(C)(=O)=O)C5)CC3)CC2)nc1 [Example G9] | 0.317 µM
CCc1cnc(N2CCC(OCCOc3ncc4c(n3)CCN(S(C)(=O)=O)C4)CC2)nc1 [Example E1, 2-(2-(1-(5-ethylpyrimidin-2-yl)piperidin-4-yloxy)ethoxy)-6-(methylsulfonyl)-5,6,7,8-tetrahydropyrido[4,3-d]pyrimidine] | 0.212 µM
CCc1cnc(N2CCC(CCCOc3ncc4c(n3)CCN(S(=O)(=O)CCCO)C4)CC2)nc1 [Example D9, 3-(2-{3-[1-(5-ethylpyrimidin-2-yl)piperidin-4-yl]propoxy}-5H,6H,7H,8H-pyrido[4,3-d]pyrimidine-6-sulfonyl)propan-1-ol] | 0.005 µM
CN(CCCC1CCN(C(=O)OC2(C)CC2)CC1)c1ncc2c(n1)CCN(S(C)(=O)=O)C2 [Example D8, 1-methylcyclopropyl 4-(3-(methyl(6-(methylsulfonyl)-5,6,7,8-tetrahydropyrido[4,3-d]pyrimidin-2-yl)amino)propyl)piperidine-1-carboxylate] | 0.01 µM
CC(C)OC(=O)N1CCC(CCCCOC2=NCCC3CN(S(C)(=O)=O)CCC23)CC1 (centres unmarked) [Example A8, isopropyl 4-(4-(6-(methylsulfonyl)-3,4,4a,5,6,7,8,8a-octahydro-2,6-naphthyridin-1-yloxy)butyl)piperidine-1-carboxylate] | 0.137 µM
CS(=O)(=O)N1CCc2nc(OCCCc3ccc(-n4cccn4)nc3)ncc2C1 [Example G16, 5-[3-({6-methanesulfonyl-5H,6H,7H,8H-pyrido[4,3-d]pyrimidin-2-yl}oxy)propyl]-2-(1H-pyrazol-1-yl)pyridine] | 1.02 µM
CCc1cnc(-c2ccc(CCCOc3ncc4c(n3)CCN(S(C)(=O)=O)C4)cc2)nc1 [Example G15, 5-ethyl-2-{4-[3-({6-methanesulfonyl-5H,6H,7H,8H-pyrido[4,3-d]pyrimidin-2-yl}oxy)propyl]phenyl}pyrimidine] | 0.366 µM

— patent US20110190263A1, “COMPOUNDS AND COMPOSITIONS AS MODULATORS OF GPR119 ACTIVITY” (IRM LLC, priority 2008, published 2011)
